Results taken from patent US8048825B2, “Haloalkylsulfonanilide derivatives or salt thereof, herbicide comprising the derivatives as active ingredient, and use of the herbicide” (Nihon Nohyaku Co., Ltd., priority 2006, dated 2011).

Columns and labels:
Type in all cases: in vivo
[1] = tested on: Scirpus juncoides; experiment: Herbicidal effect on paddy field weeds of post-emergence stage (Post), Test Example 2; details: one-leaf stage, 1000 g/ha as active ingredient, examined after 21 days
Procedure, shortened: (§1)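 Post-emergence paddy test: formulated compound added to 5 cm standing water at 1000 g/ha a.i. when weeds reached one-leaf stage in clay loam pots in greenhouse. Growth inhibition rated 21 days later versus untreated control on a 0 (0%) to 5 (100%) scale.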

[2] = tested on: Echinochloa crus-galli; experiment: as above; details: one-leaf stage, 1000 g/ha as active ingredient, examined after 21 days
Procedure, shortened: as §1

[3] = tested on: Lindernia procumbens; experiment: as above; details: one-leaf stage, 1000 g/ha as active ingredient, examined after 21 days
Procedure, shortened: as §1

[4] = tested on: Scirpus juncoides; experiment: Herbicidal efficacy on paddy field weeds of pre-emergence stage (Pre), Test Example 1; details: 1000 g/ha as active ingredient, examined after 21 days
Procedure, shortened: (§2)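 Pre-emergence paddy test: 1000 g/ha active ingredient, formulated and water-diluted, dropped onto 5 cm floodwater one day after sowing both weeds in clay loam. After 21 days in greenhouse, inhibition relative to untreated control rated on 0 (0%) to 5 (100%) scale.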

[5] = tested on: Lindernia procumbens; experiment: as above; details: 1000 g/ha as active ingredient, examined after 21 days
Procedure, shortened: as §2

CCCC1(CC)CCN(Cc2ccccc2NS(=O)(=O)C(F)(F)F)C(=O)O1 (racemic) [Compound 1-494]
Scirpus juncoides post (herbicidal effect) [1]: 4 (90%-99% herbicidal effect, phytotoxicity) | Echinochloa crus-galli post (herbicidal effect) [2]: 4 (90%-99% herbicidal effect, phytotoxicity) | Lindernia procumbens post (herbicidal effect) [3]: 5 (100% herbicidal effect, phytotoxicity) | Scirpus juncoides pre (herbicidal effect) [4]: 5 (100% herbicidal effect, phytotoxicity) | Lindernia procumbens pre (herbicidal effect) [5]: 5 (100% herbicidal effect, phytotoxicity)

CCCC1(CC)CCN(Cc2ccccc2N(C(=O)OCC)S(=O)(=O)C(F)(F)F)C(=O)O1 (racemic) [Compound 1-496]
Scirpus juncoides post (herbicidal effect) [1]: 4 (90%-99% herbicidal effect, phytotoxicity) | Echinochloa crus-galli post (herbicidal effect) [2]: 4 (90%-99% herbicidal effect, phytotoxicity) | Lindernia procumbens post (herbicidal effect) [3]: 5 (100% herbicidal effect, phytotoxicity) | Scirpus juncoides pre (herbicidal effect) [4]: 5 (100% herbicidal effect, phytotoxicity) | Lindernia procumbens pre (herbicidal effect) [5]: 5 (100% herbicidal effect, phytotoxicity)

CCCC1(CC)CCN(Cc2ccccc2N(C(=O)OCC(C)C)S(=O)(=O)C(F)(F)F)C(=O)O1 (racemic) [Compound 1-499]
Scirpus juncoides post (herbicidal effect) [1]: 4 (90%-99% herbicidal effect, phytotoxicity) | Echinochloa crus-galli post (herbicidal effect) [2]: 4 (90%-99% herbicidal effect, phytotoxicity) | Lindernia procumbens post (herbicidal effect) [3]: 5 (100% herbicidal effect, phytotoxicity) | Scirpus juncoides pre (herbicidal effect) [4]: 5 (100% herbicidal effect, phytotoxicity) | Lindernia procumbens pre (herbicidal effect) [5]: 5 (100% herbicidal effect, phytotoxicity)

CCCC1(CC)CCN(Cc2ccccc2N(C(=O)Oc2ccccc2)S(=O)(=O)C(F)(F)F)C(=O)O1 (racemic) [Compound 1-501]
Scirpus juncoides post (herbicidal effect) [1]: 4 (90%-99% herbicidal effect, phytotoxicity) | Echinochloa crus-galli post (herbicidal effect) [2]: 5 (100% herbicidal effect, phytotoxicity) | Lindernia procumbens post (herbicidal effect) [3]: 5 (100% herbicidal effect, phytotoxicity) | Scirpus juncoides pre (herbicidal effect) [4]: 5 (100% herbicidal effect, phytotoxicity) | Lindernia procumbens pre (herbicidal effect) [5]: 5 (100% herbicidal effect, phytotoxicity)

O=C1OCCCCN1Cc1ccccc1NS(=O)(=O)C(F)(F)F [2-1]
Scirpus juncoides post (herbicidal effect) [1]: 4 (90%-99% herbicidal effect, phytotoxicity) | Echinochloa crus-galli post (herbicidal effect) [2]: 4 (90%-99% herbicidal effect, phytotoxicity) | Lindernia procumbens post (herbicidal effect) [3]: 4 (90%-99% herbicidal effect, phytotoxicity) | Scirpus juncoides pre (herbicidal effect) [4]: 4 (90%-99% herbicidal effect, phytotoxicity) | Lindernia procumbens pre (herbicidal effect) [5]: 4 (90%-99% herbicidal effect, phytotoxicity)

CCOC(=O)N(c1ccccc1CN1CCCCOC1=O)S(=O)(=O)C(F)(F)F [2-3]
Scirpus juncoides post (herbicidal effect) [1]: 4 (90%-99% herbicidal effect, phytotoxicity) | Echinochloa crus-galli post (herbicidal effect) [2]: 4 (90%-99% herbicidal effect, phytotoxicity) | Lindernia procumbens post (herbicidal effect) [3]: 4 (90%-99% herbicidal effect, phytotoxicity) | Scirpus juncoides pre (herbicidal effect) [4]: 4 (90%-99% herbicidal effect, phytotoxicity) | Lindernia procumbens pre (herbicidal effect) [5]: 4 (90%-99% herbicidal effect, phytotoxicity)

CCCOC(=O)N(c1ccccc1CN1CCCCOC1=O)S(=O)(=O)C(F)(F)F [2-4]
Scirpus juncoides post (herbicidal effect) [1]: 4 (90%-99% herbicidal effect, phytotoxicity) | Echinochloa crus-galli post (herbicidal effect) [2]: 4 (90%-99% herbicidal effect, phytotoxicity) | Lindernia procumbens post (herbicidal effect) [3]: 4 (90%-99% herbicidal effect, phytotoxicity) | Scirpus juncoides pre (herbicidal effect) [4]: 4 (90%-99% herbicidal effect, phytotoxicity) | Lindernia procumbens pre (herbicidal effect) [5]: 4 (90%-99% herbicidal effect, phytotoxicity)

CCCCOC(=O)N(c1ccccc1CN1CCCCOC1=O)S(=O)(=O)C(F)(F)F [2-5]
Scirpus juncoides post (herbicidal effect) [1]: 4 (90%-99% herbicidal effect, phytotoxicity) | Echinochloa crus-galli post (herbicidal effect) [2]: 4 (90%-99% herbicidal effect, phytotoxicity) | Lindernia procumbens post (herbicidal effect) [3]: 4 (90%-99% herbicidal effect, phytotoxicity) | Scirpus juncoides pre (herbicidal effect) [4]: 4 (90%-99% herbicidal effect, phytotoxicity) | Lindernia procumbens pre (herbicidal effect) [5]: 4 (90%-99% herbicidal effect, phytotoxicity)

CC(C)COC(=O)N(c1ccccc1CN1CCCCOC1=O)S(=O)(=O)C(F)(F)F [2-6]
Scirpus juncoides post (herbicidal effect) [1]: 4 (90%-99% herbicidal effect, phytotoxicity) | Echinochloa crus-galli post (herbicidal effect) [2]: 4 (90%-99% herbicidal effect, phytotoxicity) | Lindernia procumbens post (herbicidal effect) [3]: 4 (90%-99% herbicidal effect, phytotoxicity) | Scirpus juncoides pre (herbicidal effect) [4]: 4 (90%-99% herbicidal effect, phytotoxicity) | Lindernia procumbens pre (herbicidal effect) [5]: 4 (90%-99% herbicidal effect, phytotoxicity)

CCOC(=O)N(c1ccccc1CN1CCCCOC1=S)S(=O)(=O)C(F)(F)F [2-14]
Scirpus juncoides post (herbicidal effect) [1]: 4 (90%-99% herbicidal effect, phytotoxicity) | Echinochloa crus-galli post (herbicidal effect) [2]: 4 (90%-99% herbicidal effect, phytotoxicity) | Lindernia procumbens post (herbicidal effect) [3]: 4 (90%-99% herbicidal effect, phytotoxicity) | Scirpus juncoides pre (herbicidal effect) [4]: 4 (90%-99% herbicidal effect, phytotoxicity) | Lindernia procumbens pre (herbicidal effect) [5]: 4 (90%-99% herbicidal effect, phytotoxicity)

CCCCOC(=O)N(c1ccccc1CN1CCCOC1=O)S(=O)(=O)C(F)(F)F [Compound 1-5]
Scirpus juncoides post (herbicidal effect) [1]: 4 (90%-99% herbicidal effect, phytotoxicity) | Echinochloa crus-galli post (herbicidal effect) [2]: 4 (90%-99% herbicidal effect, phytotoxicity) | Lindernia procumbens post (herbicidal effect) [3]: 4 (90%-99% herbicidal effect, phytotoxicity) | Scirpus juncoides pre (herbicidal effect) [4]: 4 (90%-99% herbicidal effect, phytotoxicity) | Lindernia procumbens pre (herbicidal effect) [5]: 4 (90%-99% herbicidal effect, phytotoxicity)

CC(C)COC(=O)N(c1ccccc1CN1CCCOC1=O)S(=O)(=O)C(F)(F)F [Compound 1-6]
Scirpus juncoides post (herbicidal effect) [1]: 4 (90%-99% herbicidal effect, phytotoxicity) | Echinochloa crus-galli post (herbicidal effect) [2]: 4 (90%-99% herbicidal effect, phytotoxicity) | Lindernia procumbens post (herbicidal effect) [3]: 4 (90%-99% herbicidal effect, phytotoxicity) | Scirpus juncoides pre (herbicidal effect) [4]: 4 (90%-99% herbicidal effect, phytotoxicity) | Lindernia procumbens pre (herbicidal effect) [5]: 4 (90%-99% herbicidal effect, phytotoxicity)

CCCCOC(=O)N(c1ccccc1CN1CCCOC1=S)S(=O)(=O)C(F)(F)F [Compound 1-16]
Scirpus juncoides post (herbicidal effect) [1]: 4 (90%-99% herbicidal effect, phytotoxicity) | Echinochloa crus-galli post (herbicidal effect) [2]: 4 (90%-99% herbicidal effect, phytotoxicity) | Lindernia procumbens post (herbicidal effect) [3]: 4 (90%-99% herbicidal effect, phytotoxicity) | Scirpus juncoides pre (herbicidal effect) [4]: 4 (90%-99% herbicidal effect, phytotoxicity) | Lindernia procumbens pre (herbicidal effect) [5]: 4 (90%-99% herbicidal effect, phytotoxicity)

CC(C)COC(=O)N(c1ccccc1CN1CCCOC1=S)S(=O)(=O)C(F)(F)F [Compound 1-17]
Scirpus juncoides post (herbicidal effect) [1]: 4 (90%-99% herbicidal effect, phytotoxicity) | Echinochloa crus-galli post (herbicidal effect) [2]: 4 (90%-99% herbicidal effect, phytotoxicity) | Lindernia procumbens post (herbicidal effect) [3]: 4 (90%-99% herbicidal effect, phytotoxicity) | Scirpus juncoides pre (herbicidal effect) [4]: 4 (90%-99% herbicidal effect, phytotoxicity) | Lindernia procumbens pre (herbicidal effect) [5]: 4 (90%-99% herbicidal effect, phytotoxicity)

CC1(C)COC(=O)N(Cc2ccccc2NS(=O)(=O)C(F)(F)F)C1 [Compound 1-23]
Scirpus juncoides post (herbicidal effect) [1]: 4 (90%-99% herbicidal effect, phytotoxicity) | Echinochloa crus-galli post (herbicidal effect) [2]: 4 (90%-99% herbicidal effect, phytotoxicity) | Lindernia procumbens post (herbicidal effect) [3]: 4 (90%-99% herbicidal effect, phytotoxicity) | Scirpus juncoides pre (herbicidal effect) [4]: 4 (90%-99% herbicidal effect, phytotoxicity) | Lindernia procumbens pre (herbicidal effect) [5]: 4 (90%-99% herbicidal effect, phytotoxicity)

CCOC(=O)N(c1ccccc1CN1CC(C)(C)COC1=O)S(=O)(=O)C(F)(F)F [Compound 1-25]
Scirpus juncoides post (herbicidal effect) [1]: 4 (90%-99% herbicidal effect, phytotoxicity) | Echinochloa crus-galli post (herbicidal effect) [2]: 4 (90%-99% herbicidal effect, phytotoxicity) | Lindernia procumbens post (herbicidal effect) [3]: 4 (90%-99% herbicidal effect, phytotoxicity) | Scirpus juncoides pre (herbicidal effect) [4]: 4 (90%-99% herbicidal effect, phytotoxicity) | Lindernia procumbens pre (herbicidal effect) [5]: 4 (90%-99% herbicidal effect, phytotoxicity)

CCCOC(=O)N(c1ccccc1CN1CC(C)(C)COC1=O)S(=O)(=O)C(F)(F)F [Compound 1-26]
Scirpus juncoides post (herbicidal effect) [1]: 4 (90%-99% herbicidal effect, phytotoxicity) | Echinochloa crus-galli post (herbicidal effect) [2]: 4 (90%-99% herbicidal effect, phytotoxicity) | Lindernia procumbens post (herbicidal effect) [3]: 4 (90%-99% herbicidal effect, phytotoxicity) | Scirpus juncoides pre (herbicidal effect) [4]: 4 (90%-99% herbicidal effect, phytotoxicity) | Lindernia procumbens pre (herbicidal effect) [5]: 4 (90%-99% herbicidal effect, phytotoxicity)
